Calls of active or inactive are those of the source. No cut-off for these calls is given here. Bridge positions count the residues as written; N and C are the ends. Square brackets hold non-standard residues; d marks the D form. Peptide text beside a SMILES is read from it.
Columns and labels:
[1] = tested on: Mus musculus; test: Induction of weight loss in sc dosed high fat diet fed mouse after 4 weeks; format: functional
[2] = tested on: Mus musculus; test: Reduction in epididymal fat pad size in sc dosed high fat diet fed mouse after 4 weeks relative to control; format: functional; design: scale not given: the % may be the effect or the level left
[3] = tested on: MDA-MB-435; test: Antitumor activity against human MDA-MB-435 cells xenografted mouse assessed as survival after 120 days; format: functional
[4] = species on record: Mus musculus; test: Increase in survival of transgenic mouse prostate adenocarcinoma model after 6 to 8 weeks; format: functional, organism-based; conditions: Prostate gland

CC(C)C[C@@H](NC(=O)[C@@H](CCCCN)NC(=O)CNC(=O)CNC(=O)[C@@H]1CSSC[C@H](N)C(=O)N[C@@H](CCCCN)C(=O)NCC(=O)NCC(=O)N[C@@H](CCCNC(=N)N)C(=O)N[C@@H](C)C(=O)N[C@@H](CCCCN)C(=O)N[C@@H](CC(=O)O)C(=O)N1)C(=O)N[C@H](C)C(=O)N[C@H](CCCCN)C(=O)N[C@H](CC(C)C)C(=O)N[C@H](C)C(=O)N[C@H](CCCCN)C(=O)N[C@H](CCCCN)C(=O)N[C@H](CC(C)C)C(=O)N[C@H](C)C(=O)N[C@H](CCCCN)C(=O)N[C@H](CC(C)C)C(=O)N[C@H](C)C(=O)N[C@H](CCCCN)C(=O)O (H-CKGGRAKDCGG[dK][dL][dA][dK][dL][dA][dK][dK][dL][dA][dK][dL][dA][dK]-OH; disulfide 1-9)
Activity [1]: 30% | Activity [2]: >70%

CC(C)C[C@@H](NC(=O)[C@@H](CCCCN)NC(=O)CNC(=O)CNC(=O)[C@@H]1CSSC[C@H](N)C(=O)N[C@@H](CC(N)=O)C(=O)NCC(=O)N[C@@H](CCCNC(=N)N)C(=O)N1)C(=O)N[C@H](C)C(=O)N[C@H](CCCCN)C(=O)N[C@H](CC(C)C)C(=O)N[C@H](C)C(=O)N[C@H](CCCCN)C(=O)N[C@H](CCCCN)C(=O)N[C@H](CC(C)C)C(=O)N[C@H](C)C(=O)N[C@H](CCCCN)C(=O)N[C@H](CC(C)C)C(=O)N[C@H](C)C(=O)N[C@H](CCCCN)C(=O)O (H-CNGRCGG[dK][dL][dA][dK][dL][dA][dK][dK][dL][dA][dK][dL][dA][dK]-OH; disulfide 1-5)
Survival [3]: 60%

CC[C@H](C)[C@H](NC(=O)[C@H](CO)NC(=O)[C@H](CCSC)NC(=O)[C@@H](N)CO)C(=O)N[C@@H](C)C(=O)N[C@@H](CCCNC(=N)N)C(=O)N[C@@H](CC(C)C)C(=O)NCC(=O)NCC(=O)N[C@H](CCCCN)C(=O)N[C@H](CC(C)C)C(=O)N[C@H](C)C(=O)N[C@H](CCCCN)C(=O)N[C@H](CC(C)C)C(=O)N[C@H](C)C(=O)N[C@H](CCCCN)C(=O)N[C@H](CCCCN)C(=O)N[C@H](CC(C)C)C(=O)N[C@H](C)C(=O)N[C@H](CCCCN)C(=O)N[C@H](CC(C)C)C(=O)N[C@H](C)C(=O)N[C@H](CCCCN)C(=O)O (H-SMSIARLGG[dK][dL][dA][dK][dL][dA][dK][dK][dL][dA][dK][dL][dA][dK]-OH)
Activity [4]: Active
